PMC8991199, “Promiscuity mapping of the S100 protein family using a high-throughput holdup assay” (Scientific Reports, 2022)
Entries after “also recorded” stand apart in the source; their conditions may differ.

Key:
Assay type in all cases: binding
[1] = target: S100A2 (Homo sapiens, UniProt P29034); test: direct fluorescence polarization (FP), S100A2; details: S100A2, 50 nM labeled foldamer, 20 mM HEPES pH 7.5, 150 mM NaCl, 1 mM CaCl2, 0.5 mM TCEP, 0.01% Tween20, quadratic fit, mean ± SEM, three technical repeats, threshold 1 mM
Chain of S100A2 (P29034 whole entry): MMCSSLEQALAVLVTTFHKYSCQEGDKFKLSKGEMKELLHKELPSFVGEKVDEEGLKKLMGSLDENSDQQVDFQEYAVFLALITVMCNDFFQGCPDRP
Description: HTP (and also low-throughput) measurements generally need to be validated by an orthogonal approach to eliminate experimental artifacts. […] In this assay, the association of the fluorescently labeled foldamer and the S100 protein of interest is monitored, through the change in polarization of the emitted light by the fluorophore upon the binding event. In direct FP, the presence of the fluorophore might change the binding affinity of some foldamers. […] Nevertheless, we assumed that the fluorophore would affect all foldamers that target the same binding site to the same degree, because the foldamer scaffold is rigid.
(§1) Briefly, S100 proteins were cloned into a modified pET15b vector with a TEV protease cleavable N-terminal His6-tag and expressed in Escherichia coli BL21 (DE3) cells, followed by Ni^2+-affinity chromatography. For HU assay, S100 proteins were further purified by either hydrophobic interaction chromatography or ion exchange chromatography without the cleavage of the N-terminal His6-tag applying standard conditions. For direct FP measurements, the N-terminal His6-tag was cleaved, and the S100 proteins were purified by hydrophobic interaction chromatography, ion exchange chromatography or size exclusion chromatography. The quality of the recombinant proteins was checked by SDS-PAGE analysis in all cases. The concentration of the recombinant S100 proteins was determined by UV spectrophotometry using the absorbance of Tyr and Trp residues.
(§2) In direct fluorescence polarization assays, S100 proteins were diluted in a buffer containing 50 nM labeled foldamer, 20 mM HEPES pH 7.5, 150 mM NaCl, 1 mM CaCl2, 0.5 mM TCEP and 0.01% Tween20. The dilution series (50 µl) were divided into three technical repeats and transferred (15 µl) to a 384-well microplate. In competitive fluorescence polarization assays, the buffer applied in direct measurements was supplemented with the S100 protein of interest to reach a saturation of 60–80%. This mixture was titrated with the competitor (i.e. the unlabeled peptide). Fluorescence polarization was measured in 8 different S100 concentrations (one of which contained no S100 protein) on a Synergy H4 plate reader using 485 ± 20 nm and 528 ± 20 nm band-pass filters for excitation and emission, respectively. The Kd values were obtained by fitting the data from the FP measurements with the python-based ProFit software using quadratic and competitive binding equation for direct and competitive FP, respectively. The detection threshold was based on two parameters. First, we rejected all fitted dissociation constants above 1 mM.

[2] = target: T1, S100A3 (Homo sapiens, UniProt P33764); test: direct fluorescence polarization (FP), S100A3; details: S100A3, 50 nM labeled foldamer, 20 mM HEPES pH 7.5, 150 mM NaCl, 1 mM CaCl2, 0.5 mM TCEP, 0.01% Tween20, quadratic fit, mean ± SEM, three technical repeats, threshold 1 mM
T1 sequence (P33764 1-101): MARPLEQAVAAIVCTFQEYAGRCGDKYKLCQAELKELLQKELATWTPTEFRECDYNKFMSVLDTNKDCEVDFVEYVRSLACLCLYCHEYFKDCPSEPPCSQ
Protocol: (§3) HTP (and also low-throughput) measurements generally need to be validated by an orthogonal approach to eliminate experimental artifacts. […] This way, we chose WL, IF, WW, YF, IL, VL, TW, RF, RR, TI, TM, and after resynthesizing with a fluorescent label at the C-terminus (Figs. S15–S26, Table S1), the S100ome was tested against the labeled foldamers by direct fluorescence polarization (FP) (Fig. 3A). In this assay, the association of the fluorescently labeled foldamer and the S100 protein of interest is monitored, through the change in polarization of the emitted light by the fluorophore upon the binding event. In direct FP, the presence of the fluorophore might change the binding affinity of some foldamers. […] Nevertheless, we assumed that the fluorophore would affect all foldamers that target the same binding site to the same degree, because the foldamer scaffold is rigid. Defining the threshold of detection at the dissociation constant of 1 mM, we identified 87 interactions between the selected foldamer fragments and the S100ome out of 220 possible interactions (Table 1, Fig. S4-14).
as §1, §2

[3] = target: T2, S100A5 (Homo sapiens, UniProt P33763); test: direct fluorescence polarization (FP), S100A5; details: for binding to S100A5 in the absence of Ca2+: Fig. 3C middle panels, direct FP in the presence of EDTA; for Kd: direct FP, S100A5, 50 nM labeled foldamer, 20 mM HEPES pH 7.5, 150 mM NaCl, 1 mM CaCl2, 0.5 mM TCEP, 0.01% Tween20, quadratic fit, mean ± SEM, three technical repeats, threshold 1 mM
T2 sequence (P33763 1-92): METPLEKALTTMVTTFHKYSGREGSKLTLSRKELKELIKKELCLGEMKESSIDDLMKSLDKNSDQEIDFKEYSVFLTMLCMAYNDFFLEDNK
Protocol: as §3
To ensure that foldamer fragments bind to the hydrophobic binding groove of S100 proteins, which opens upon binding of calcium ions, we performed FP experiments on a selected S100 protein, S100A5, in the presence of EDTA and TRTK12, an S100-binding peptide of 12 amino acids. […] Based on the similarity and redundancy among the S100 family, it can be assumed that all S100 proteins bind the members of the H14 foldamer library through their hydrophobic binding pocket in a Ca^2+-dependent manner.
as §1, §2

[4] = target: T3, S100A8 (Homo sapiens, UniProt P05109); test: direct fluorescence polarization (FP), S100A8; details: S100A8, 50 nM labeled foldamer, 20 mM HEPES pH 7.5, 150 mM NaCl, 1 mM CaCl2, 0.5 mM TCEP, 0.01% Tween20, quadratic fit, mean ± SEM, three technical repeats, threshold 1 mM
T3 sequence (P05109 1-93): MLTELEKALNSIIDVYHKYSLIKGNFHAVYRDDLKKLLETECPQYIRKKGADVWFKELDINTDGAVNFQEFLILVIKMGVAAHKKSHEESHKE
Protocol: as §3, §1, §2

[5] = target: T4, S100A12 (Homo sapiens, UniProt P80511); test: direct fluorescence polarization (FP), S100A12; details: S100A12, 50 nM labeled foldamer, 20 mM HEPES pH 7.5, 150 mM NaCl, 1 mM CaCl2, 0.5 mM TCEP, 0.01% Tween20, quadratic fit, mean ± SEM, three technical repeats, threshold 1 mM
T4 sequence (P80511 1-92): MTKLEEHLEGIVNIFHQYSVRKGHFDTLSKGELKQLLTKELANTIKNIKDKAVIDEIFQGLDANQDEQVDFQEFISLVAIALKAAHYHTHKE
Protocol: as §3, §1, §2

[6] = target: T5, S100A16 (Homo sapiens, UniProt Q96FQ6); test: direct fluorescence polarization (FP), S100A16; details: S100A16, 50 nM labeled foldamer, 20 mM HEPES pH 7.5, 150 mM NaCl, 1 mM CaCl2, 0.5 mM TCEP, 0.01% Tween20, quadratic fit, mean ± SEM, three technical repeats, threshold 1 mM
T5 sequence (Q96FQ6 1-103): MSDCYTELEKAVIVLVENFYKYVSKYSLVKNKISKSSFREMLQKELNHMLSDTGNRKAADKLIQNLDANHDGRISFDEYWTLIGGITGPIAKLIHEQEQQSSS
Protocol: as §3, §1, §2

| Kd [1] | Kd [2] | Kd [3] | Kd [4] | Kd [5] | Kd [6] | Structure (SMILES) | binding to S100A5 in the absence of Ca2+ [3] |
| --- | --- | --- | --- | --- | --- | --- | --- |
| 78 ± 8.7 µM | > 1000 µM | 75 ± 3.6 µM | > 1000 µM | > 1000 µM | > 1000 µM | CC[C@H](C)[C@@H](CC(=O)N[C@H]1CCCC[C@@H]1C(=O)N[C@H]1CCCC[C@@H]1C(=O)N[C@H](CC(=O)N[C@H]1CCCC[C@@H]1C(=O)NCC(=O)N[C@@H](CCCCNC(=O)c1ccc2c(c1)C1(OC2=O)c2ccc(O)cc2Oc2cc(O)ccc21)C(N)=O)CC(C)C)NC(=O)[C@H]1CCCC[C@@H]1N [fIL] | – |
| 340 ± 21 µM | > 1000 µM | 46 ± 1.2 µM | > 1000 µM | > 1000 µM | > 1000 µM | N=C(N)NCCC[C@@H](CC(=O)N[C@H]1CCCC[C@@H]1C(=O)N[C@H]1CCCC[C@@H]1C(=O)N[C@H](CC(=O)N[C@H]1CCCC[C@@H]1C(=O)NCC(=O)N[C@@H](CCCCNC(=O)c1ccc2c(c1)C1(OC2=O)c2ccc(O)cc2Oc2cc(O)ccc21)C(N)=O)Cc1ccccc1)NC(=O)[C@H]1CCCC[C@@H]1N [fRF] | – |
| 61 ± 5.5 µM | > 1000 µM | 45 ± 0.81 µM | > 1000 µM | > 1000 µM | > 1000 µM | N=C(N)NCCC[C@@H](CC(=O)N[C@H]1CCCC[C@@H]1C(=O)NCC(=O)N[C@@H](CCCCNC(=O)c1ccc2c(c1)C1(OC2=O)c2ccc(O)cc2Oc2cc(O)ccc21)C(N)=O)NC(=O)[C@H]1CCCC[C@@H]1NC(=O)[C@H]1CCCC[C@@H]1NC(=O)C[C@H](CCCNC(=N)N)NC(=O)[C@H]1CCCC[C@@H]1N [fRR] | – |
| > 1000 µM | > 1000 µM | 270 ± 14 µM | > 1000 µM | > 1000 µM | > 1000 µM | CC[C@H](C)[C@@H](CC(=O)N[C@H]1CCCC[C@@H]1C(=O)NCC(=O)N[C@@H](CCCCNC(=O)c1ccc2c(c1)C1(OC2=O)c2ccc(O)cc2Oc2cc(O)ccc21)C(N)=O)NC(=O)[C@H]1CCCC[C@@H]1NC(=O)[C@H]1CCCC[C@@H]1NC(=O)C[C@@H](NC(=O)[C@H]1CCCC[C@@H]1N)[C@@H](C)O [fTI] | – |
| > 1000 µM | > 1000 µM | 204 ± 9.2 µM | > 1000 µM | > 1000 µM | > 1000 µM | CSCC[C@@H](CC(=O)N[C@H]1CCCC[C@@H]1C(=O)NCC(=O)N[C@@H](CCCCNC(=O)c1ccc2c(c1)C1(OC2=O)c2ccc(O)cc2Oc2cc(O)ccc21)C(N)=O)NC(=O)[C@H]1CCCC[C@@H]1NC(=O)[C@H]1CCCC[C@@H]1NC(=O)C[C@@H](NC(=O)[C@H]1CCCC[C@@H]1N)[C@@H](C)O [fTM] | – |
| – | > 1000 µM | 62 ± 1.4 µM | 770 ± 180 µM | > 1000 µM | > 1000 µM | C[C@@H](O)[C@@H](CC(=O)N[C@H]1CCCC[C@@H]1C(=O)N[C@H]1CCCC[C@@H]1C(=O)N[C@H](CC(=O)N[C@H]1CCCC[C@@H]1C(=O)NCC(=O)N[C@@H](CCCCNC(=O)c1ccc2c(c1)C1(OC2=O)c2ccc(O)cc2Oc2cc(O)ccc21)C(N)=O)Cc1c[nH]c2ccccc12)NC(=O)[C@H]1CCCC[C@@H]1N [fTW] | – |
| 210 ± 110 µM | > 1000 µM | 110 ± 5.4 µM | > 1000 µM | > 1000 µM | > 1000 µM | CC(C)C[C@@H](CC(=O)N[C@H]1CCCC[C@@H]1C(=O)NCC(=O)N[C@@H](CCCCNC(=O)c1ccc2c(c1)C1(OC2=O)c2ccc(O)cc2Oc2cc(O)ccc21)C(N)=O)NC(=O)[C@H]1CCCC[C@@H]1NC(=O)[C@H]1CCCC[C@@H]1NC(=O)C[C@@H](NC(=O)[C@H]1CCCC[C@@H]1N)C(C)C [fVL] | – |

| Structure (SMILES) | Kd [1] | Kd [2] | Kd [3] | Kd [4] | Kd [5] | Kd [6] | binding to S100A5 in the absence of Ca2+ [3] |
| --- | --- | --- | --- | --- | --- | --- | --- |
| CC[C@H](C)[C@@H](CC(=O)N[C@H]1CCCC[C@@H]1C(=O)N[C@H]1CCCC[C@@H]1C(=O)N[C@H](CC(=O)N[C@H]1CCCC[C@@H]1C(=O)NCC(=O)N[C@@H](CCCCNC(=O)c1ccc2c(c1)C1(OC2=O)c2ccc(O)cc2Oc2cc(O)ccc21)C(N)=O)Cc1ccccc1)NC(=O)[C@H]1CCCC[C@@H]1N [fIF] | 38 ± 1.5 µM | 180 ± 8.4 µM | 27 ± 0.53 µM | 750 ± 46 µM | 590 ± 39 µM | > 1000 µM | loss of binding event; also recorded: unable to interact |
| CC(C)C[C@@H](CC(=O)N[C@H]1CCCC[C@@H]1C(=O)NCC(=O)N[C@@H](CCCCNC(=O)c1ccc2c(c1)C1(OC2=O)c2ccc(O)cc2Oc2cc(O)ccc21)C(N)=O)NC(=O)[C@H]1CCCC[C@@H]1NC(=O)[C@H]1CCCC[C@@H]1NC(=O)C[C@H](Cc1c[nH]c2ccccc12)NC(=O)[C@H]1CCCC[C@@H]1N [fWL] | 11 ± 0.39 µM | > 1000 µM | 14 ± 0.55 µM | 74 ± 3.5 µM | 254 ± 113 µM | 304 ± 131 µM | loss of binding event; also recorded: unable to interact |
| NC(=O)[C@H](CCCCNC(=O)c1ccc2c(c1)C1(OC2=O)c2ccc(O)cc2Oc2cc(O)ccc21)NC(=O)CNC(=O)[C@H]1CCCC[C@@H]1NC(=O)C[C@H](Cc1c[nH]c2ccccc12)NC(=O)[C@H]1CCCC[C@@H]1NC(=O)[C@H]1CCCC[C@@H]1NC(=O)C[C@H](Cc1c[nH]c2ccccc12)NC(=O)[C@H]1CCCC[C@@H]1N [fWW] | 65 ± 1.2 µM | 310 ± 21 µM | 77 ± 2.8 µM | > 1000 µM | > 1000 µM | > 1000 µM | – |
| NC(=O)[C@H](CCCCNC(=O)c1ccc2c(c1)C1(OC2=O)c2ccc(O)cc2Oc2cc(O)ccc21)NC(=O)CNC(=O)[C@H]1CCCC[C@@H]1NC(=O)C[C@H](Cc1ccccc1)NC(=O)[C@H]1CCCC[C@@H]1NC(=O)[C@H]1CCCC[C@@H]1NC(=O)C[C@H](Cc1ccc(O)cc1)NC(=O)[C@H]1CCCC[C@@H]1N [fYF] | 26 ± 2.1 µM | > 1000 µM | 32 ± 1 µM | 180 ± 42 µM | > 1000 µM | > 1000 µM | – |
